# Measured values: ChEMBL document CHEMBL4177612, “Discovery of tranylcypromine analogs with an acylhydrazone substituent as LSD1 inactivators: Design, synthesis and their biological evaluation” (Bioorg Med Chem Lett, 2017)
# Activity calls are given as the source filed them. The rule behind the calls is not given here.
# Columns and labels:
# Format in all cases: functional, cell-based
# MGC-803 [1] = assay: Effect on LSD1 level in human MGC803 cells at 1 to 4 uM after 4 days by immunofluorescence analysis
# MGC-803 [2] = assay: Antiinvasive activity against human MGC803 cells at 0.25 to 1 uM after 24 hrs by DAPI staining based matrigel coated transwell assay
# MGC-803 [3] = assay: Anti-migratory activity against human MGC803 cells after 24 hrs by DAPI staining based transwell assay
structure (smiles),measurement,setting,value
CCN(CC)c1ccc(/C=N/NC(=O)CN[C@@H]2C[C@H]2c2ccc(F)c(F)c2)c(O)c1,Activity,MGC-803 [1],inactive
same,Activity,MGC-803 [2],Active
same,Activity,MGC-803 [3],Dose-dependent effect
